Numbered stars: 1 amine (or outer) side, 2 acyl side, 3 side chain; on linkers, the order of the positions; unused ones are H or OH. Bridge positions count the residues as written; N and C are the ends. Side chains are listed from the residue outwards. Peptide text beside a SMILES is read from it. * marks the point of attachment. C20 diacid = O=C(O)CCCCCCCCCCCCCCCCCCC(=O)*; γGlu = O=C(O)[C@H](CCC(=O)[*:2])N[*:1]; AEEA = NCCOCCOCC(=O)O
What was measured:
[1] = molecular target: T1, rat amylin receptor (rat calcitonin receptor + rat RAMP 3) (Rattus norvegicus, UniProt P32214+Q9JJ73); assay: ASSAY (VI) binding to the rat amylin receptor; settings: Table 7; rat binding selectivity, rCTR IC50 / rAmylin-R IC50
T1 construct: expressed in transfected cells; host or cells: BHK tk'ts 13 (transient, FuGENE 6), membranes
T1 sequence (P32214 25-479 isoform P32214-2 limits assumed): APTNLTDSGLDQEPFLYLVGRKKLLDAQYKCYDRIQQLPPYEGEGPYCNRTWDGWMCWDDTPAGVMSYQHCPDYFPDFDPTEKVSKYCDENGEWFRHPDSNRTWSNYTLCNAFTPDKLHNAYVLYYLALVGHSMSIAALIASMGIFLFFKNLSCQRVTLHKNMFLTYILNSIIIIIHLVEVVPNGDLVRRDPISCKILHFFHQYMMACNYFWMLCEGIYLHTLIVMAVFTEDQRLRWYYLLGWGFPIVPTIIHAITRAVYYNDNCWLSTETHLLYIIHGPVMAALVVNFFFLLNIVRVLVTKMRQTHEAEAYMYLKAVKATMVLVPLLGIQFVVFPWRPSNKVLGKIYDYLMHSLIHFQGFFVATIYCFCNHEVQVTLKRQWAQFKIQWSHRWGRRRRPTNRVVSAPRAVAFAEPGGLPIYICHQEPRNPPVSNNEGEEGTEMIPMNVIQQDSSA
T1 sequence (Q9JJ73 23-147 partner): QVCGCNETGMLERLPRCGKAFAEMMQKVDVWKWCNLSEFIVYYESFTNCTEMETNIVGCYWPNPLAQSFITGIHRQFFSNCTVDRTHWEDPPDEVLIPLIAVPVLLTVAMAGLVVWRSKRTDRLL
Outline: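 The cell-membrane assay assessed binding at the rat amylin receptor. BHK tk′ts 13 cells were transfected transiently with rat calcitonin receptor, with FuGENE® 6 (Roche) as the transfection reagent, used per the manufacturer's recommendations. Approximately 48 hours after transfection the cells were harvested, and membranes were prepared for measuring binding.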

[2] = ASSAY (III) ThT fibrillation assay for physical stability; type: physicochemical
Outline: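 Physical stability scored by ThT fluorescence (444 nm excitation, 485 nm emission) tracked every 20 min during 37 °C incubation with 960 rpm shaking, ThT at 1 μM final. Values are replicate means with SD at chosen times; HPLC against pramlintide standard gives initial and post-assay soluble concentrations.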

SMILES	Ratio rCT/rAmylin binding [1]	ThT pH 4.0 lag time (h) [2]
CC[C@H](C)[C@H](NC(=O)[C@H](C)NC(=O)CNC(=O)[C@H](Cc1ccccc1)NC(=O)[C@H](CC(N)=O)NC(=O)[C@@H]1CCCN1C(=O)[C@H](CO)NC(=O)[C@H](CO)NC(=O)[C@H](Cc1c[nH]cn1)NC(=O)[C@H](CCCNC(=N)N)NC(=O)[C@H](CC(C)C)NC(=O)[C@H](Cc1ccccc1)NC(=O)[C@H](CCC(=O)O)NC(=O)[C@H](C)NC(=O)[C@H](CC(C)C)NC(=O)[C@H](CCCNC(=N)N)NC(=O)[C@H](CCC(N)=O)NC(=O)[C@@H](NC(=O)[C@H](C)NC(=O)[C@@H]1CSSC[C@H](NC(=O)[C@@H](N)CCCCNC(=O)CC[C@H](NC(=O)CCCCCCCCCCCCCCCCCCC(=O)O)C(=O)O)C(=O)N[C@@H](CC(N)=O)C(=O)N[C@@H]([C@@H](C)O)C(=O)N[C@@H](C)C(=O)N[C@@H]([C@@H](C)O)C(=O)N1)[C@@H](C)O)C(=O)N1CCC[C@H]1C(=O)N[C@@H](CO)C(=O)N[C@@H](CO)C(=O)N[C@H](C(=O)N[C@@H](CC(N)=O)C(=O)N[C@H](C(=O)NCC(=O)N[C@@H](CO)C(=O)N[C@@H](CC(N)=O)C(=O)N[C@H](C(=O)N1CCC[C@H]1C(N)=O)[C@@H](C)O)C(C)C)[C@@H](C)O [Example 12] (H-K([γGlu-C20 diacid])CNTATCATQRLAEFLRHSSPNFGAIPSSTNVGSNTP-NH2; disulfide 2-7 (inferred); N-terminus assumed)	5.0	45 h
CC[C@H](C)[C@H](NC(=O)[C@H](C)NC(=O)CNC(=O)[C@H](Cc1ccccc1)NC(=O)[C@H](CC(N)=O)NC(=O)[C@@H]1CCCN1C(=O)[C@H](CO)NC(=O)[C@H](CO)NC(=O)[C@H](Cc1c[nH]cn1)NC(=O)[C@H](CCCNC(=N)N)NC(=O)[C@H](CC(C)C)NC(=O)[C@H](Cc1ccccc1)NC(=O)[C@H](CCC(=O)O)NC(=O)[C@H](C)NC(=O)[C@H](CC(C)C)NC(=O)[C@H](CCCNC(=N)N)NC(=O)[C@H](CCC(N)=O)NC(=O)[C@@H](NC(=O)[C@H](C)NC(=O)[C@@H]1CSSC[C@H](NC(=O)[C@H](CCCCN)NC(=O)COCCOCCNC(=O)COCCOCCNC(=O)CC[C@H](NC(=O)CCCCCCCCCCCCCCCCCCC(=O)O)C(=O)O)C(=O)N[C@@H](CC(N)=O)C(=O)N[C@@H]([C@@H](C)O)C(=O)N[C@@H](C)C(=O)N[C@@H]([C@@H](C)O)C(=O)N1)[C@@H](C)O)C(=O)N1CCC[C@H]1C(=O)N[C@@H](CO)C(=O)N[C@@H](CO)C(=O)N[C@H](C(=O)N[C@@H](CC(N)=O)C(=O)N[C@H](C(=O)NCC(=O)N[C@@H](CO)C(=O)N[C@@H](CC(N)=O)C(=O)N[C@H](C(=O)N1CCC[C@H]1C(N)=O)[C@@H](C)O)C(C)C)[C@@H](C)O [Example 20] ({C20 diacid-γGlu-AEEA-AEEA}-KCNTATCATQRLAEFLRHSSPNFGAIPSSTNVGSNTP-NH2; disulfide 2-7)	6.4	45 h

From patent US9023789B2, “Amylin analogs and pharmaceutical compositions thereof” (Novo Nordisk A/S, priority 2012, dated 2015)
